Results as given in US10246455B2, “Histone deacetylase inhibitors” (Taipei Medical University, priority 2014, dated 2019).
Like-named read-outs stand apart in the source and are kept apart here.

Columns and labels:
[1] = system: HONE-1 (nasopharyngeal carcinoma); assay: IC50 in human cancer cell lines (inhibiting HDAC): HONE-1
[2] = system: H460 (non-small-cell lung carcinoma); assay: IC50 in human cancer cell lines (inhibiting HDAC): H460
[3] = system: human PC3 prostate cancer cells xenograft; assay: In vivo antitumor activity assay, PC3 xenograft
Description: The antitumor effect of the two test compounds were examined in mice xenografted with human PC3 prostate cancer cells or HCT116 colorectal cells.
Five million PC3 cells were subcutaneously inoculated into specific pathogen-free male athymic mice (strain BALB/cAnN.Cg-Foxn1nu/CrlNarl) from the National Laboratory Animal Center, Taiwan. Mice were subsequently fed under specific pathogen-free conditions and provided with sterile water and food. When the tumor volume reached 150 to 200 mm^3, mice were assigned to groups randomly and treated with vehicle control or Compound 7 or 5b at 25/50/100 mg/kg. The compound was administered once a day, 5 days/week for 2 weeks (n=6) by oral administration. Tumor volume and body weight change were measured twice a week. At the end of the experiments (day 25 after first dosing), animals were euthanized in a CO2-containing chamber, and the tumors were collected and fixed in formaldehyde. The terminal deoxynucleotidyl transferase-mediated dUTP nick end labeling assay (TUNEL) was conducted for apoptosis detection. Tumor tissue sections were analyzed using a FITC In Situ Cell death detection kit (Roche) and fluorescence microscopy. Tissue treated with DNase was used as the positive control. Green fluorescence labeled nucleus indicates the induction of DNA fragmentation.

[4] = system: histone and α-tubulin acetylation in PC3 cells; assay: Western blot: acetylation in PC3 cells; assay type: cell-based, human; details: concentration-dependent
Description: More specifically, cells in the logarithmic phase were initially seeded at a density of 1×10^6 in 100 mm^2 dishes. […] Briefly, cells were lysed with the cell lysis reagent CelLytic™ M (Sigma-Aldrich) containing 1 mM DTT, 1 mM PMSF and protease inhibitors for whole-cell lysate preparation. Equal amounts of lysate (on a protein basis) were then differentiated using the SDS-PAGE, blotted on PVDF membranes, conjugated with various specific primary antibodies, and then probed with appropriate secondary antibodies. The immunoreactive bands were detected using the ECL method and visualized on Kodak Bio-MAX MR film.
Proteins from cells were extracted and subjected to the western blotting analysis. β-Actin was used as an internal control. The deacetylase enzyme assay was based on a homogeneous fluorescence release assay. […] After fluorophore from the deacetylated substrates, fluorescent signal was detected.

PC3 (prostate carcinoma) = assay: IC50 in human cancer cell lines (inhibiting HDAC): PC3
[5] = system: HT-29 (colorectal carcinoma); assay: IC50 in human cancer cell lines (inhibiting HDAC): HT-29
[6] = system: androgen-independent PC3 prostate cancer cells; assay: Cell cycle analysis; assay type: cell-based, human; details: for cell cycle arrest and apoptosis: androgen-independent PC3 prostate cancer cells
Description: More specifically, cells in the logarithmic phase were initially seeded at a density of 1×10^6 in 100 mm^2 dishes. After treatment with various concentrations of test compounds for the indicated times, cells were trypsinized, washed with PBS, and fixed in 70% ethanol. The fixed cells were then treated with 50 μg/mL RNase and stained with 50 μg/mL propidium iodide at room temperature for 20 minutes. The DNA content was determined by BD FACS Calibur flow cytometry system (BD Biosciences). For each analysis, 10,000 cells were counted, and the percentage of cells in each phase was calculated using ModFit LT software (Verity Software House, Inc.).

[7] = system: KB cell line (oral carcinoma); assay: IC50 in human cancer cell lines (inhibiting HDAC): KB
[8] = system: LNCaP104-R1 prostate cancer cells; assay: Two dimensional cell growth inhibitory assay (MTT): LNCaP104-R1; details: Homo sapiens, 72 h, read-out: MTT IC50 ± SD
Description: (§3) For the two dimensional assay, cancel cells in the logarithmic phase were cultured in complete medium in 96-well plates at 37° C. with 5% CO2 for overnight incubation, and treated with various concentrations of test compounds for three generative times. Cells were then incubated with a serum free medium containing 3-(4,5-dimethylthiazol-2-yl)-2,5-diphenyltetrazolium bromide (MTT) at a final concentration of 0.5 mg/mM for four hours. MTT was converted to formazan by metabolically viable cells. Formazan was then solublized in 50% DMF solution containing 20% SDS at 37° C. overnight. Absorbance was measured at 570 nm using a spectramax M5 microplate reader (Molecular Devices, UK).

[9] = system: PC3 prostate cancer cells; assay: Three dimensional cell growth inhibitory assay (cellular spheres, MTT, microscopy): PC3; assay type: cell-based, human; details: for IC50: Homo sapiens
Description: (§1) For the three dimensional assay, cells in the logarithmic phase were cultured in 50% Matrigel-containing complete medium in 96-well plates at 37° C. with 5% CO2 for five days incubation, and treated with appropriate concentrations of test compounds for three generative times. Images of spheroids were taken under a microscope, and spheroid cell survival was determined by MTT assays.
(§2) The cells (in the 2D culture) and the cellular spheres (in the 3D culture) were treated with test compounds for 72 hours, and then subjected to the MTT colorimetric assay. Each value represents the mean of three independent experiments. Cellular spheres formed in semi-solid and drug effect on cellular spheres were examined using phase-contrast light microscopy.
More specifically, cellular spheres formed in semi-solid and drug effect on cellular spheres were examined using phase-contrast light microscopy. 3D structures of cells were analyzed using 4× magnification, 10× magnification, and 20× magnification.

[10] = system: Du145 prostate cancer cells; assay: Two dimensional cell growth inhibitory assay (MTT): Du145; details: Homo sapiens, DU-145, 72 h, read-out: MTT IC50 ± SD
Description: as §3

[11] = system: LNCaP104-R1 prostate cancer cells; assay: Three dimensional cell growth inhibitory assay (cellular spheres, MTT): LNCaP104-R1; assay type: cell-based; details: Homo sapiens; 3D cellular sphere culture, LNCaP104-R1 (androgen-independent), 72 hours; read-out: MTT IC50 ± SD
Description: as §1, §2

[12] = system: LNCaP104-R2 prostate cancer cells; assay: Two dimensional cell growth inhibitory assay (MTT): LNCaP104-R2; details: Homo sapiens, 72 h, read-out: MTT IC50 ± SD
Description: as §3

[13] = system: LNCaP104-S prostate cancer cells; assay: Two dimensional cell growth inhibitory assay (MTT): LNCaP104-S; details: Homo sapiens, 72 h, read-out: MTT IC50 ± SD
Description: as §3

[14] = system: LNCaP104-S prostate cancer cells; assay: Three dimensional cell growth inhibitory assay (cellular spheres, MTT): LNCaP104-S; assay type: cell-based; details: Homo sapiens; 3D cellular sphere culture, LNCaP104-S (androgen-dependent), 72 hours; read-out: MTT IC50 ± SD
Description: as §1, §2

[15] = system: PC3 prostate cancer cells; assay: Two dimensional cell growth inhibitory assay (MTT): PC3; details: Homo sapiens
Description: as §3

SMILES: COc1ccc(S(=O)(=O)N2CCc3cc(/C=C/C(=O)NO)cnc32)cc1 [Compound 5b, (E)-N-hydroxy-3-(1-(4-methoxyphenylsulfonyl)-2,3-dihydro-1H-pyrrolo[2,3-b]pyridin-5-yl)acrylamide]
- IC50 ([1]; HONE1, read-out: IC50 ± SD against human cancer cell lines): 0.447 ± 0.0452 µM
- IC50 ([2]; NCI-H460, read-out: IC50 ± SD against human cancer cell lines): 0.113 ± 0.0095 µM
- inhibition of human PC3 xenograft growth ([3]; 50 mg/kg oral, day 29 after the first dosing): about 70%
- inhibition of human PC3 xenograft growth ([3]; 100 mg/kg oral): completely inhibited
- tumor regression ([3]; PC3 xenograft, 100 mg/kg oral): achieved tumor regression from day 8 to day 29
- histone and α-tubulin acetylation [4]: induced histone and α-tubulin acetylation
- IC50 (PC3 (prostate carcinoma); read-out: IC50 ± SD against human cancer cell lines): 0.17 ± 0.04 µM
- IC50 ([5]; HT-29, read-out: IC50 ± SD against human cancer cell lines): 0.0854 ± 0.0098 µM
- p21 up-regulation [6]: induced p21 up-regulation
- cell cycle arrest and apoptosis [6]: induced cell cycle arrest and apoptosis
- IC50 ([7]; Homo sapiens, read-out: IC50 ± SD against human cancer cell lines, KB, oral carcinoma): 0.0866 ± 0.0171 µM
- IC50 [8]: 0.1 ± 0.04 µM
- IC50 ([9]; 3D cellular sphere culture, PC3, 72 hours, read-out: MTT IC50 ± SD): 0.41 ± 0.06 µM
- IC50 ([9]; Table 6, cell line not given, read-out: IC50 value 3D Culture): 0.41 ± 0.06 µM
- IC50 [10]: 0.09 ± 0.03 µM
- IC50 [11]: 0.15 to 0.625 µM
- IC50 [12]: 0.18 ± 0.07 µM
- IC50 [13]: 0.15 ± 0.03 µM
- IC50 [14]: 0.23 ± 0.03 µM
- IC50 ([15]; 72 h, read-out: MTT IC50 ± SD): 0.17 ± 0.04 µM
- IC50 ([15]; read-out: IC50 value 2D Culture): 0.17 ± 0.04 µM

SMILES: O=C(/C=C/c1cccc(S(=O)(=O)n2ccc3cccnc32)c1)NO [Compound 7, (E)-3-(3-(1H-Pyrrolo[2,3-b]pyridin-1-ylsulfonyl)phenyl)-N-hydroxyacrylamide]
- IC50 ([1]; HONE1, read-out: IC50, inhibiting HDAC in human cancer cell lines): 1.2 ± 0.31 µM
- IC50 ([2]; NCI-H460, read-out: IC50, inhibiting HDAC in human cancer cell lines): 0.57 ± 0.01 µM
- inhibition of human PC3 xenograft growth ([3]; 25 mg/kg oral, day 25 after the first dosing): about 50%
- inhibition of human PC3 xenograft growth ([3]; 50 mg/kg oral, day 25 after the first dosing): about 50%
- body weight change ([3]; PC3 xenograft mice, 25 and 50 mg/kg oral): without causing much body weight change
- histone and α-tubulin acetylation [4]: induced histone and α-tubulin acetylation
- IC50 (PC3 (prostate carcinoma); read-out: IC50, inhibiting HDAC in human cancer cell lines): 1.63 ± 0.41 µM
- IC50 ([5]; HT-29, read-out: IC50, inhibiting HDAC in human cancer cell lines): 1.24 ± 0.4 µM
- cell cycle arrest and apoptosis [6]: induced cell cycle arrest and apoptosis
- IC50 ([7]; read-out: IC50, inhibiting HDAC in human cancer cell lines, oral carcinoma): 0.76 ± 0.23 µM
- IC50 [8]: 1.15 ± 0.03 µM
- effect on spheroid structure of PC3 tumors ([9]; 3D culture, phase-contrast light microscopy): disrupted the spheroid structure of PC3 tumors in a concentration-dependent manner
- IC50 ([9]; read-out: 3D Culture): 6.38 ± 0.16 µM
- cytotoxic / anti-proliferative activity in 3D versus 2D culture ([9]; human prostate carcinoma cells, 2D and 3D culture): potent in both a 3D spheroid culture and a 2D culture
- IC50 [10]: 1.22 ± 0.05 µM
- IC50 [11]: 2.45 ± 0.15 µM
- IC50 [12]: 2.09 ± 0.11 µM
- IC50 [13]: 1.98 ± 0.1 µM
- IC50 [14]: 3.21 ± 0.15 µM
- IC50 ([15]; read-out: 2D Culture): 2.99 ± 0.17 µM
